Patent US20190185518A9, “WARHEAD-CONTAINING PEPTIDOMIMETIC MACROCYCLES AS MODULATORS OF BFL-1” (AILERON Therapeutics, Inc., priority 2017, published 2019)
Positions of bridges follow the written chain, without caps; N, C: chain ends. Non-standard residues stand in square brackets, D forms with d. Residues, ends and D or L forms follow the SMILES beside them. Phe(4-F) = N[C@@H](Cc1ccc(F)cc1)C(=O)O; 2Nal = N[C@@H](Cc1ccc2ccccc2c1)C(=O)O; tBuAla = CC(C)(C)C[C@H](N)C(=O)O; R8 = C=CCCCCCC[C@@](C)(N)C(=O)O; S5 = C=CCCC[C@](C)(N)C(=O)O

target: Mcl-1 (Homo sapiens, UniProt Q07820); test: Ki determination for Mcl-1 (BCL-2 family binding spectrum); details: read-out: Ki MCL-1
Sequence (Q07820 whole entry, species assumed): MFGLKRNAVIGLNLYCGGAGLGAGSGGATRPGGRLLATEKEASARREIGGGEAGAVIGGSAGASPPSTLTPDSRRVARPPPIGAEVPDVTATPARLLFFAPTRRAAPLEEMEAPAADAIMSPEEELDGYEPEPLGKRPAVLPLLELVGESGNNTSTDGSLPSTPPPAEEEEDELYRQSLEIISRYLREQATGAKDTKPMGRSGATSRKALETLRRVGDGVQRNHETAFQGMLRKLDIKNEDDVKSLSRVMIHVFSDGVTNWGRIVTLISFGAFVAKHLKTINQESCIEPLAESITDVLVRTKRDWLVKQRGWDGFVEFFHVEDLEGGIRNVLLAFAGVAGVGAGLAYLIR
Text: To assess the binding and affinity of compounds that antagonize the interaction between a peptide and an acceptor protein, a fluorescence polarization assay (FPA) utilizing a fluoresceinated peptidomimetic macrocycle derived from a peptidomimetic precursor sequence is used, for example. The FPA technique measures the molecular orientation and mobility using polarized light and fluorescent tracer. […] A compound that antagonizes the interaction between the fluoresceinated peptidomimetic macrocycle and an acceptor protein will be detected in a competitive binding FPA experiment.
Antagonist binding activity is measured, for example, by fluorescence polarization on a luminescence spectrophotometer (e.g. Perkin-Elmer LS50B). Kd values may be determined by nonlinear regression analysis using, for example, Graphpad Prism software (GraphPad Software, Inc., San Diego, Calif.).

| Structure (SMILES) | Ki [nM] |
| --- | --- |
| CC[C@H](C)[C@H](NC(C)=O)C(=O)N[C@@H](Cc1c[nH]c2ccccc12)C(=O)N[C@H](C(=O)N[C@@H](C)C(=O)N[C@@H](CCC(N)=O)C(=O)N[C@@H](C)C(=O)N[C@@H](CC(C)C)C(=O)N[C@@H](CCCNC(=N)N)C(=O)N[C@]1(C)CCCCCC/C=C\CCC[C@@](C)(C(=O)N[C@@H](Cc2ccc(O)cc2)C(=O)N[C@@H](Cc2ccc(O)cc2)C(=O)N[C@@H](C)C(N)=O)NC(=O)[C@H](CC(N)=O)NC(=O)[C@H](Cc2ccccc2)NC(=O)[C@H](C)NC(=O)[C@H](CC(=O)O)NC(=O)CNC(=O)[C@H](CC(C)(C)C)NC1=O)[C@@H](C)CC [compound 1701] (Ac-IWIAQALR[R8][tBuAla]GDAFN[S5]YYA-NH2; staple (Z) 9-16) | 13.7 |
| CC[C@H](C)[C@H](NC(C)=O)C(=O)N[C@@H](Cc1c[nH]c2ccccc12)C(=O)N[C@H](C(=O)N[C@@H](C)C(=O)N[C@@H](CC(C)C)C(=O)N[C@@H](C)C(=O)N[C@@H](CC(C)C)C(=O)N[C@@H](CCCNC(=N)N)C(=O)N[C@]1(C)CCCCCCC=CCCC[C@@](C)(C(=O)N[C@@H](Cc2ccc(O)cc2)C(=O)N[C@@H](Cc2ccc(O)cc2)C(=O)N[C@@H](C)C(N)=O)NC(=O)[C@H](CC(N)=O)NC(=O)[C@H](Cc2ccccc2)NC(=O)[C@H](C)NC(=O)[C@H](CC(=O)O)NC(=O)CNC(=O)[C@H]([C@@H](C)CC)NC1=O)[C@@H](C)CC [compound 1736] (Ac-IWIALALR[R8]IGDAFN[S5]YYA-NH2; staple 9-16) | 11.6 |
| CC[C@H](C)[C@H](NC(C)=O)C(=O)N[C@@H](Cc1c[nH]c2ccccc12)C(=O)N[C@H](C(=O)N[C@@H](C)C(=O)N[C@@H](C)C(=O)N[C@@H](C)C(=O)N[C@@H](CC(C)C)C(=O)N[C@@H](CCCNC(=N)N)C(=O)N[C@]1(C)CCCCCCC=CCCC[C@@](C)(C(=O)N[C@@H](Cc2ccc(O)cc2)C(=O)N[C@@H](Cc2ccc(O)cc2)C(=O)N[C@@H](Cc2c[nH]cn2)C(N)=O)NC(=O)[C@H](CC(N)=O)NC(=O)[C@H](Cc2ccccc2)NC(=O)[C@H](C)NC(=O)[C@H](CC(=O)O)NC(=O)CNC(=O)[C@H]([C@@H](C)CC)NC1=O)[C@@H](C)CC [compound 1764] (Ac-IWIAAALR[R8]IGDAFN[S5]YYH-NH2; staple 9-16) | 10.6 |
| CC[C@H](C)[C@H](NC(=O)[C@H](Cc1c[nH]c2ccccc12)NC(=O)[C@H](CCC(N)=O)NC(C)=O)C(=O)N[C@@H](C)C(=O)N[C@@H](C)C(=O)N[C@@H](C)C(=O)N[C@@H](CC(C)C)C(=O)N[C@@H](CCCNC(=N)N)C(=O)N[C@]1(C)CCCCCCC=CCCC[C@@](C)(C(=O)N[C@@H](Cc2ccc(O)cc2)C(=O)N[C@@H](Cc2ccc(O)cc2)C(=O)N[C@@H](C)C(N)=O)NC(=O)[C@H](CC(N)=O)NC(=O)[C@H](Cc2ccccc2)NC(=O)[C@H](C)NC(=O)[C@H](CC(=O)O)NC(=O)CNC(=O)[C@H]([C@@H](C)CC)NC1=O [compound 1721] (Ac-QWIAAALR[R8]IGDAFN[S5]YYA-NH2; staple 9-16) | 4.8 |
| CC[C@H](C)[C@H](NC(C)=O)C(=O)N[C@@H](Cc1c[nH]c2ccccc12)C(=O)N[C@H](C(=O)N[C@@H](C)C(=O)N[C@@H](C)C(=O)N[C@@H](C)C(=O)N[C@@H](CC(C)C)C(=O)N[C@@H](CCCNC(=N)N)C(=O)N[C@]1(C)CCCCCCC=CCCC[C@@](C)(C(=O)N[C@@H](Cc2ccc(O)cc2)C(=O)N[C@@H](Cc2ccc(O)cc2)C(=O)N[C@@H](CCC(N)=O)C(N)=O)NC(=O)[C@H](CC(N)=O)NC(=O)[C@H](Cc2ccccc2)NC(=O)[C@H](C)NC(=O)[C@H](CC(=O)O)NC(=O)CNC(=O)[C@H]([C@@H](C)CC)NC1=O)[C@@H](C)CC [compound 1762] (Ac-IWIAAALR[R8]IGDAFN[S5]YYQ-NH2; staple 9-16) | 4.6 |
| CC[C@H](C)[C@H](NC(=O)[C@H](Cc1c[nH]c2ccccc12)NC(=O)[C@H](CCCCN)NC(C)=O)C(=O)N[C@@H](C)C(=O)N[C@@H](C)C(=O)N[C@@H](C)C(=O)N[C@@H](CC(C)C)C(=O)N[C@@H](CCCNC(=N)N)C(=O)N[C@]1(C)CCCCCCC=CCCC[C@@](C)(C(=O)N[C@@H](Cc2ccc(O)cc2)C(=O)N[C@@H](Cc2ccc(O)cc2)C(=O)N[C@@H](C)C(N)=O)NC(=O)[C@H](CC(N)=O)NC(=O)[C@H](Cc2ccccc2)NC(=O)[C@H](C)NC(=O)[C@H](CC(=O)O)NC(=O)CNC(=O)[C@H]([C@@H](C)CC)NC1=O [compound 1718] (Ac-KWIAAALR[R8]IGDAFN[S5]YYA-NH2; staple 9-16) | 3.9 |
| CC[C@H](C)[C@H](NC(C)=O)C(=O)N[C@@H](Cc1c[nH]c2ccccc12)C(=O)N[C@H](C(=O)N[C@@H](C)C(=O)N[C@@H](CCC(N)=O)C(=O)N[C@@H](C)C(=O)N[C@@H](CC(C)C)C(=O)N[C@@H](CCCNC(=N)N)C(=O)N[C@]1(C)CCCCCCC=CCCC[C@@](C)(C(=O)N[C@@H](Cc2ccc(O)cc2)C(=O)N[C@@H](Cc2ccc3ccccc3c2)C(=O)N[C@@H](C)C(N)=O)NC(=O)[C@H](CC(N)=O)NC(=O)[C@H](Cc2ccccc2)NC(=O)[C@H](C)NC(=O)[C@H](CC(=O)O)NC(=O)CNC(=O)[C@H]([C@@H](C)CC)NC1=O)[C@@H](C)CC [compound 1759] (Ac-IWIAQALR[R8]IGDAFN[S5]Y[2Nal]A-NH2; staple 9-16) | 8 |
| CC[C@H](C)[C@H](NC(C)=O)C(=O)N[C@@H](Cc1c[nH]c2ccccc12)C(=O)N[C@H](C(=O)N[C@@H](C)C(=O)N[C@@H](CCC(N)=O)C(=O)N[C@@H](C)C(=O)N[C@@H](CC(C)C)C(=O)N[C@@H](CCCNC(=N)N)C(=O)N[C@]1(C)CCCCCCC=CCCC[C@@](C)(C(=O)N[C@@H](Cc2ccc(O)cc2)C(=O)N[C@@H](Cc2ccc(F)cc2)C(=O)N[C@@H](C)C(N)=O)NC(=O)[C@H](CC(N)=O)NC(=O)[C@H](Cc2ccccc2)NC(=O)[C@H](C)NC(=O)[C@H](CC(=O)O)NC(=O)CNC(=O)[C@H]([C@@H](C)CC)NC1=O)[C@@H](C)CC [compound 1710] (Ac-IWIAQALR[R8]IGDAFN[S5]Y[Phe(4-F)]A-NH2; staple 9-16) | 4.8 |

The remaining compounds from weak to strong by Ki, led by results:

| Ki [nM] | Structure (SMILES) |
| --- | --- |
| 3.9 | CC[C@H](C)[C@H](NC(=O)[C@H](Cc1c[nH]c2ccccc12)NC(=O)[C@H](CO)NC(C)=O)C(=O)N[C@@H](C)C(=O)N[C@@H](C)C(=O)N[C@@H](C)C(=O)N[C@@H](CC(C)C)C(=O)N[C@@H](CCCNC(=N)N)C(=O)N[C@]1(C)CCCCCCC=CCCC[C@@](C)(C(=O)N[C@@H](Cc2ccc(O)cc2)C(=O)N[C@@H](Cc2ccc(O)cc2)C(=O)N[C@@H](C)C(N)=O)NC(=O)[C@H](CC(N)=O)NC(=O)[C@H](Cc2ccccc2)NC(=O)[C@H](C)NC(=O)[C@H](CC(=O)O)NC(=O)CNC(=O)[C@H]([C@@H](C)CC)NC1=O [compound 1720] (Ac-SWIAAALR[R8]IGDAFN[S5]YYA-NH2; staple 9-16) |
| 3.8 | CC[C@H](C)[C@H](NC(=O)[C@H](Cc1c[nH]c2ccccc12)NC(=O)[C@H](C)NC(C)=O)C(=O)N[C@@H](C)C(=O)N[C@@H](C)C(=O)N[C@@H](C)C(=O)N[C@@H](CC(C)C)C(=O)N[C@@H](CCCNC(=N)N)C(=O)N[C@]1(C)CCCCCCC=CCCC[C@@](C)(C(=O)N[C@@H](Cc2ccc(O)cc2)C(=O)N[C@@H](Cc2ccc(O)cc2)C(=O)N[C@@H](C)C(N)=O)NC(=O)[C@H](CC(N)=O)NC(=O)[C@H](Cc2ccccc2)NC(=O)[C@H](C)NC(=O)[C@H](CC(=O)O)NC(=O)CNC(=O)[C@H]([C@@H](C)CC)NC1=O [compound 1722] (Ac-AWIAAALR[R8]IGDAFN[S5]YYA-NH2; staple 9-16) |
| 3.6 | CC[C@H](C)[C@H](NC(=O)[C@H](Cc1c[nH]c2ccccc12)NC(=O)[C@H](Cc1c[nH]cn1)NC(C)=O)C(=O)N[C@@H](C)C(=O)N[C@@H](C)C(=O)N[C@@H](C)C(=O)N[C@@H](CC(C)C)C(=O)N[C@@H](CCCNC(=N)N)C(=O)N[C@]1(C)CCCCCCC=CCCC[C@@](C)(C(=O)N[C@@H](Cc2ccc(O)cc2)C(=O)N[C@@H](Cc2ccc(O)cc2)C(=O)N[C@@H](C)C(N)=O)NC(=O)[C@H](CC(N)=O)NC(=O)[C@H](Cc2ccccc2)NC(=O)[C@H](C)NC(=O)[C@H](CC(=O)O)NC(=O)CNC(=O)[C@H]([C@@H](C)CC)NC1=O [compound 1719] (Ac-HWIAAALR[R8]IGDAFN[S5]YYA-NH2; staple 9-16) |
| 2.2 | CC[C@H](C)[C@H](NC(=O)[C@H](Cc1c[nH]c2ccccc12)NC(=O)[C@H](CCC(=O)O)NC(C)=O)C(=O)N[C@@H](C)C(=O)N[C@@H](C)C(=O)N[C@@H](C)C(=O)N[C@@H](CC(C)C)C(=O)N[C@@H](CCCNC(=N)N)C(=O)N[C@]1(C)CCCCCCC=CCCC[C@@](C)(C(=O)N[C@@H](Cc2ccc(O)cc2)C(=O)N[C@@H](Cc2ccc(O)cc2)C(=O)N[C@@H](C)C(N)=O)NC(=O)[C@H](CC(N)=O)NC(=O)[C@H](Cc2ccccc2)NC(=O)[C@H](C)NC(=O)[C@H](CC(=O)O)NC(=O)CNC(=O)[C@H]([C@@H](C)CC)NC1=O [compound 1716] (Ac-EWIAAALR[R8]IGDAFN[S5]YYA-NH2; staple 9-16) |
| 1.4 | CC[C@H](C)[C@H](NC(C)=O)C(=O)N[C@@H](Cc1c[nH]c2ccccc12)C(=O)N[C@H](C(=O)N[C@@H](C)C(=O)N[C@@H](C)C(=O)N[C@@H](C)C(=O)N[C@@H](CC(C)C)C(=O)N[C@@H](CCCNC(=N)N)C(=O)N[C@]1(C)CCCCCCC=CCCC[C@@](C)(C(=O)N[C@@H](Cc2ccc(O)cc2)C(=O)N[C@@H](Cc2ccc(O)cc2)C(=O)N[C@@H](CCC(=O)O)C(N)=O)NC(=O)[C@H](CC(N)=O)NC(=O)[C@H](Cc2ccccc2)NC(=O)[C@H](C)NC(=O)[C@H](CC(=O)O)NC(=O)CNC(=O)[C@H]([C@@H](C)CC)NC1=O)[C@@H](C)CC [compound 1761] (Ac-IWIAAALR[R8]IGDAFN[S5]YYE-NH2; staple 9-16) |
